# In ChEMBL document CHEMBL1201862, “PubChem BioAssay data set” (2004):
#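 In this assay, cells in 96-well plates receive the compound at five concentrations for 48 hours. Endpoints are linearly interpolated between the surrounding concentrations. GI50 is the concentration that inhibits growth by half.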 Active and inactive are the calls of the source. Cut-off read from the data, not from the text of the source: active = GI50 up to about 1.1 µM and inactive = higher.
# What was measured:
# Assay in all cases: NCI tumour cell line growth inhibition, 48 h
# UACC-257 = tested on: UACC-257
# OVCAR-3 = tested on: OVCAR-3
# OVCAR-8 = tested on: OVCAR-8
# SF-295 = tested on: SF-295
# SN12C = tested on: SN12C
# SK-MEL-2 = tested on: SK-MEL-2
# DMS-114 = tested on: DMS-114
# HCT-15 = tested on: HCT-15
# SK-MEL-5 = tested on: SK-MEL-5
# UACC-62 = tested on: UACC-62
# SK-OV-3 = tested on: SK-OV-3
# NCI/ADR-RES = tested on: NCI/ADR-RES
# NCI-H460 = tested on: NCI-H460
# HCC 2998 = tested on: HCC 2998
# SW-620 = tested on: SW-620
# HOP-62 = tested on: HOP-62
# DMS-273 = tested on: DMS-273
# KM12 = tested on: KM12
# SF-268 = tested on: SF-268
# RXF 393 = tested on: RXF 393
# COLO 205 = tested on: COLO 205
# A549 = tested on: A549
# U-251 = tested on: U-251
# NCI-H226 = tested on: NCI-H226
# HCT-116 = tested on: HCT-116
# CCRF-CEM = tested on: CCRF-CEM
# OVCAR-4 = tested on: OVCAR-4
# IGROV-1 = tested on: IGROV-1
# SNB-78 = tested on: SNB-78
# SK-MEL-28 = tested on: SK-MEL-28
# HL-60 = tested on: HL-60
# SNB-75 = tested on: SNB-75
# XF498 = tested on: XF498
# NCI-H522 = tested on: NCI-H522
# MOLT-4 = tested on: MOLT-4
# HOP-18 = tested on: HOP-18
# DLD-1 = tested on: DLD-1
# HT-29 = tested on: HT-29
# K562 = tested on: K562
# UO-31 = tested on: UO-31
# Malme-3M = tested on: Malme-3M
# SF-539 = tested on: SF-539
# SNB-19 = tested on: SNB-19
# HOP-92 = tested on: HOP-92
# LOX IMVI = tested on: LOX IMVI
# KM-20L2 = tested on: KM-20L2
# NCI-H23 = tested on: NCI-H23
# MCF7 = tested on: MCF7
# CAKI-1 = tested on: CAKI-1
# M19-MEL = tested on: M19-MEL
# A498 = tested on: A498
# RPMI-8226 = tested on: RPMI-8226
# OVCAR-5 = tested on: OVCAR-5
# EKVX = tested on: EKVX
compound,measurement,setting,value
CC[C@](C)(O)C(=O)O[C@H]1C(=O)O[C@@H]2C[C@H]3C(C)=C[C@H](O)[C@@H](O)[C@]3(C)[C@H]3[C@@]4(O)OC[C@]32[C@@H]1[C@@H](C)[C@H]4O,GI50,UACC-257,47.8 µM (inactive)
same,GI50,OVCAR-3,13.5 µM (inactive)
same,GI50,OVCAR-8,34 µM (inactive)
same,GI50,SF-295,46.5 µM (inactive)
same,GI50,SN12C,73.5 µM (inactive)
same,GI50,SK-MEL-2,37.7 µM (inactive)
same,GI50,DMS-114,3.68 µM (inactive)
same,GI50,HCT-15,58.2 µM
same,GI50,SK-MEL-5,9.48 µM (inactive)
same,GI50,UACC-62,19.3 µM (inactive)
same,GI50,SK-OV-3,71.9 µM (inactive)
same,GI50,NCI/ADR-RES,> 205 µM (inactive)
same,GI50,NCI-H460,9.73 µM (inactive)
same,GI50,HCC 2998,14.1 µM (inactive)
same,GI50,SW-620,12.4 µM (inactive)
same,GI50,HOP-62,35.1 µM (inactive)
same,GI50,DMS-273,17.9 µM (inactive)
same,GI50,KM12,21.6 µM (inactive)
same,GI50,SF-268,52.5 µM (inactive)
same,GI50,RXF 393,0.631 µM (active)
same,GI50,COLO 205,32.7 µM (inactive)
same,GI50,A549,61.8 µM (inactive)
same,GI50,U-251,12 µM (inactive)
same,GI50,NCI-H226,17.7 µM (inactive)
same,GI50,HCT-116,14.7 µM (inactive)
same,GI50,CCRF-CEM,4.19 µM (inactive)
same,GI50,OVCAR-4,58.6 µM (inactive)
same,GI50,IGROV-1,7.19 µM (inactive)
same,GI50,SNB-78,29.2 µM (inactive)
same,GI50,SK-MEL-28,17.3 µM (inactive)
same,GI50,HL-60,7.85 µM (inactive)
same,GI50,SNB-75,24.2 µM (inactive)
same,GI50,XF498,11.9 µM (inactive)
same,GI50,NCI-H522,3.58 µM (inactive)
same,GI50,MOLT-4,6.93 µM (inactive)
same,GI50,HOP-18,59.7 µM (inactive)
same,GI50,DLD-1,6.11 µM (inactive)
same,GI50,HT-29,29.9 µM (inactive)
same,GI50,K562,8.3 µM (inactive)
same,GI50,UO-31,96.2 µM (inactive)
same,GI50,Malme-3M,8.93 µM (inactive)
same,GI50,SF-539,12.5 µM (inactive)
same,GI50,SNB-19,9.79 µM (inactive)
same,GI50,HOP-92,4.28 µM (inactive)
same,GI50,LOX IMVI,14.5 µM (inactive)
same,GI50,KM-20L2,47.1 µM (inactive)
same,GI50,NCI-H23,5.78 µM (inactive)
same,GI50,MCF7,11.6 µM (inactive)
same,GI50,CAKI-1,27.5 µM (inactive)
same,GI50,M19-MEL,11 µM (inactive)
same,GI50,A498,30.2 µM (inactive)
same,GI50,RPMI-8226,4.34 µM (inactive)
same,GI50,OVCAR-5,104 µM (inactive)
same,GI50,EKVX,9.33 µM (inactive)
